Test results from ChEMBL document CHEMBL1138506, “Exploration of structure-activity relationship determinants in analogue series” (J Med Chem, 2009).

These compounds were tested against T1, Peroxisomal multifunctional enzyme type 2 (Homo sapiens) (UniProt P51659) (assay: Inhibition of hydroxysteroid-17-beta dehydrogenase 4).
T1 sequence (whole entry): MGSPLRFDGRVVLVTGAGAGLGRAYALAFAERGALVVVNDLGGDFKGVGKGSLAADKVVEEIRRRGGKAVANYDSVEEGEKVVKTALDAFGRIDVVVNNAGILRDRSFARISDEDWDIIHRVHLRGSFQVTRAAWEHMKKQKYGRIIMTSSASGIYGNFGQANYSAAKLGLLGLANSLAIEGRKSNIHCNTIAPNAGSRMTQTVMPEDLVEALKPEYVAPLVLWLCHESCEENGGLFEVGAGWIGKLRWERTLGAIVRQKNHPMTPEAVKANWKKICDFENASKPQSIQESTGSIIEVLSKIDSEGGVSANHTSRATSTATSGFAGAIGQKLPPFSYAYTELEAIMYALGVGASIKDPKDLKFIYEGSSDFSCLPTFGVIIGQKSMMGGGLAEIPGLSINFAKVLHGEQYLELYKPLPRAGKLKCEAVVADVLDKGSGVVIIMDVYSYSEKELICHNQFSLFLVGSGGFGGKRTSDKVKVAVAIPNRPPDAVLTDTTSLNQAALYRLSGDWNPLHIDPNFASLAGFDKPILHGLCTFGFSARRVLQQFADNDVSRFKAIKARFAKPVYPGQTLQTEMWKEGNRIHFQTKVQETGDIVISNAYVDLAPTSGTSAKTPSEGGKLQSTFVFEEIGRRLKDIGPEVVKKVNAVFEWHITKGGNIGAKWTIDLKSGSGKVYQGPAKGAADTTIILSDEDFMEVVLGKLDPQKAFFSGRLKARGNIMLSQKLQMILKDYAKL

| Activity | SMILES |
| --- | --- |
| 13 µM | CC(=O)COc1ccc2c3c(c(=O)oc2c1C)CCCCC3 |
| 25 µM | NC(=O)COc1ccc2c3c(c(=O)oc2c1)CCCCC3 |
| 25 µM | CC(=O)C(C)Oc1ccc2c3c(c(=O)oc2c1)CCCCC3 (stereo not given) |
| 32 µM | COC(=O)C(C)Oc1ccc2c3c(c(=O)oc2c1)CCCCC3 (stereo not given) |

Each compound was assayed against Prothrombin (Homo sapiens) (UniProt P00734) (assay: Inhibition of human thrombin).

| SMILES | Activity |
| --- | --- |
| Nc1nc(-c2ccco2)nn1C(=O)c1ccccc1 | 926 nM |
| CSc1nc(-c2ccco2)nn1C(=O)c1ccccc1 | 82 nM |
| Nc1nc(-c2ccco2)nn1C(=O)c1ccc(Cl)cc1 | 1460 nM |
| Nc1nc(-c2ccco2)nn1C(=O)c1ccccc1Cl | 14000 nM |

Now from value to compound:

| Activity | SMILES |
| --- | --- |
| 741 nM | Cc1ccc(C(=O)n2nc(-c3ccco3)nc2N)cc1 |
| 159 nM | CSc1nc(-c2ccco2)nn1C(=O)c1ccc(C)cc1 |
| 6930 nM | COc1ccccc1C(=O)n1nc(-c2ccco2)nc1N |
| 204 nM | COc1ccc(C(=O)n2nc(-c3ccco3)nc2SC)cc1OC |
| 828 nM | COc1ccc(C(=O)n2nc(-c3ccco3)nc2N)cc1 |
| 2230 nM | COc1ccc(C(=O)n2nc(-c3ccco3)nc2N)cc1OC |
| 1 nM | COc1ccccc1C(=O)n1nc(-c2ccco2)nc1SC |

These compounds were tested against Cytochrome P450 3A4 (Homo sapiens, UniProt P08684) (assay: Inhibition of human CYP3A4).
Chain of Cytochrome P450 3A4 (P08684 whole entry): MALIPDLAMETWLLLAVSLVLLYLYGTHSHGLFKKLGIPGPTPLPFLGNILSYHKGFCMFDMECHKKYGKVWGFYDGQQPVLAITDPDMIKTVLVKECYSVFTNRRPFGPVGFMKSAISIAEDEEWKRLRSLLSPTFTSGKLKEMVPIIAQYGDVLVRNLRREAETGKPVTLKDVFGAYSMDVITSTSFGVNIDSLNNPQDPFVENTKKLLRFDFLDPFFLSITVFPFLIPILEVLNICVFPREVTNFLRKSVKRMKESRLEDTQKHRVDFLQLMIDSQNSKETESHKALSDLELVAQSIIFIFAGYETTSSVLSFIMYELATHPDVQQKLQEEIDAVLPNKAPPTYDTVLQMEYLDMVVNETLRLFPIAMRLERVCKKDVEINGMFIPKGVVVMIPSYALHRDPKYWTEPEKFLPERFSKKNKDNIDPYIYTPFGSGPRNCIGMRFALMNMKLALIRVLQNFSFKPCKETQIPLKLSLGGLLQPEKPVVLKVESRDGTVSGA
Assay type: ADME

| SMILES | Activity |
| --- | --- |
| COc1ccc(CNc2ncnc3ccc(-c4ccccc4OC)cc23)c(OC)c1 | 2 µM |
| COc1ccccc1-c1cncnc1NCc1ccccc1 | 251 µM |
| Cc1cccc(CNc2ncncc2-c2ccc(C(=O)N(C)C)cc2)c1 | 631 µM |
| COc1ccccc1CNc1ncncc1-c1ccc(C(=O)N(C)C)cc1 | 2512 µM |
| COc1ccccc1-c1ccc2ncnc(NCc3ccccc3)c2c1 | 12.6 µM |
| CN(C)C(=O)c1ccc(-c2ccc3ncnc(NCc4ccccc4)c3c2)cc1 | 15.8 µM |
| COc1cccc(-c2cncnc2NCc2ccccc2)c1 | 316 µM |
| COc1cccc(-c2ccc3ncnc(NCc4ccc(OC)cc4OC)c3c2)c1 | 2.5 µM |
| COc1ccccc1-c1cncnc1NCc1cccc(C)c1 | 100 µM |
| Cc1cccc(CNc2ncnc3ccc(-c4ccccc4C#N)cc23)c1 | 1.2 µM |
| COc1cccc(-c2cncnc2NCc2ccc(OC)cc2OC)c1 | 501 µM |
| Cc1cccc(CNc2ncncc2-c2ccccc2Cl)c1 | 199 µM |
| CN(C)Cc1ccccc1-c1ccc2ncnc(NCc3ccccc3)c2c1 | 15.8 µM |
| COc1cccc(-c2cncnc2NCc2cccc(C)c2)c1 | 398 µM |
| N#Cc1cccc(-c2cncnc2NCc2ccccc2)c1 | 1259 µM |
| Cc1cccc(CNc2ncncc2-c2cccc(NS(C)(=O)=O)c2)c1 | 158 µM |
| COc1ccccc1CNc1ncnc2ccc(-c3cccc(C#N)c3)cc12 | 8 µM |
| Cc1cccc(CNc2ncncc2-c2cccc(C#N)c2)c1 | 199 µM |
| Cc1cccc(CNc2ncncc2-c2ccccc2C(F)(F)F)c1 | 79 µM |
| CS(=O)(=O)Nc1cccc(-c2cncnc2NCc2ccccc2)c1 | 631 µM |

| SMILES | Activity |
| --- | --- |
| COc1ccccc1CNc1ncnc2ccc(-c3ccccc3CN(C)C)cc12 | 12.6 µM |
| COc1ccc(CNc2ncncc2-c2ccc(N(C)C)cc2)c(OC)c1 | 199 µM |
| COc1ccccc1CNc1ncncc1-c1ccccc1C(F)(F)F | 79 µM |
| Cc1ccccc1-c1cncnc1NCc1ccccc1 | 316 µM |
| COc1ccc(CNc2ncnc3ccc(-c4ccccc4CN(C)C)cc23)c(OC)c1 | 8 µM |
| COc1ccccc1CNc1ncnc2ccc(-c3cccc(NS(C)(=O)=O)c3)cc12 | 3.2 µM |
| Cc1cccc(CNc2ncnc3ccc(-c4ccc(C(=O)N(C)C)cc4)cc23)c1 | 2 µM |
| Cc1cccc(CNc2ncncc2-c2ccccc2C)c1 | 398 µM |
| COc1ccccc1CNc1ncnc2ccc(-c3ccc(N(C)C)cc3)cc12 | 2 µM |
| COc1ccccc1CNc1ncnc2ccc(-c3ccccc3C#N)cc12 | 4 µM |
| COc1ccccc1CNc1ncnc2ccc(-c3ccccc3OC)cc12 | 6.3 µM |
| COc1ccccc1CNc1ncncc1-c1ccccc1Cl | 199 µM |
| COc1ccc(CNc2ncncc2-c2ccccc2C(F)(F)F)c(OC)c1 | 316 µM |
| COc1ccc(CNc2ncncc2-c2ccccc2CN(C)C)c(OC)c1 | 398 µM |
| CN(C)c1ccc(-c2ccc3ncnc(NCc4ccccc4)c3c2)cc1 | 2.5 µM |
| COc1ccc(CNc2ncncc2-c2ccccc2OC)c(OC)c1 | 316 µM |
| COc1ccccc1CNc1ncncc1-c1cccc(NS(C)(=O)=O)c1 | 251 µM |
| CN(C)C(=O)c1ccc(-c2cncnc2NCc2ccccc2)cc1 | 2512 µM |
| COc1cccc(-c2cncnc2NCc2ccccc2OC)c1 | 501 µM |
| COc1ccc(CNc2ncnc3ccc(-c4ccc(N(C)C)cc4)cc23)c(OC)c1 | 4 µM |

The next lines start with the values.

| Activity | SMILES |
| --- | --- |
| 251 µM | COc1ccc(CNc2ncncc2-c2cccc(NS(C)(=O)=O)c2)c(OC)c1 |
| 2.5 µM | COc1ccc(CNc2ncnc3ccc(-c4ccc(C(=O)N(C)C)cc4)cc23)c(OC)c1 |
| 199 µM | COc1ccc(CNc2ncncc2-c2ccccc2OC)cc1 |
| 1 µM | COc1ccc(CNc2ncnc3ccc(-c4ccccc4C#N)cc23)c(OC)c1 |
| 398 µM | COc1ccc(CNc2ncncc2-c2ccccc2C)c(OC)c1 |
| 1.6 µM | COc1ccc(CNc2ncnc3ccc(-c4cccc(C#N)c4)cc23)c(OC)c1 |
| 501 µM | COc1ccc(CNc2ncncc2-c2ccc(C(=O)N(C)C)cc2)c(OC)c1 |
| 10 µM | COc1ccccc1CNc1ncnc2ccc(-c3ccc(C(=O)N(C)C)cc3)cc12 |
| 2 µM | COc1ccc(CNc2ncnc3ccc(-c4cccc(NS(C)(=O)=O)c4)cc23)c(OC)c1 |
| 316 µM | COc1ccc(CNc2ncncc2-c2cccc(C#N)c2)c(OC)c1 |
